Legend:
B6 mice [1] = test: Tail-clip test (mechanical pain); assay type: in vivo, mouse; details: wildtype B6 mice
Method: Each B6 mouse was placed in an acrylic box (10 cm in diameter, 30 cm high) and allowed to acclimate for 5 min before testing, and then a clip was applied 1-cm from the base of the tail. The latency to bite or grasp the clip was measured during the clip was applied to the tail. […] Regardless of the response to 20 s, a cut off time was set to avoid tissue damage.

human NOP receptor = target: T1, human NOP receptor (Homo sapiens, UniProt P41146); test: cAMP assay in CHO-K1 cells expressing human NOP (CHO-K1-NOP); assay type: cell-based; details: read-out: EC50 in decreasing the cAMP level
T1 construct: expressed in transfected cells; host or cells: CHO-K1 (CHO-K1-NOP)
Text: In an exemplary in vitro assay for identifying NOP agonists, cells are engineered to overexpress NOP and are designed to detect changes in intracellular cAMP levels in response to agonist stimulation of the receptor. The enzyme donor-cAMP complex complements with the acceptor and forms an active enzyme. The active enzyme subsequently hydrolyzes a substrate to produce a chemiluminescent signal that is directly proportional to the amount of cAMP in the cells. These cells have thus been modified to work in an agonist mode.
Cells (72,000 per well) were plated in 100 μl/well of DMEM in 96-well solid-bottom white plates (GIBCO) and 50 μl/well of drug in HBSS in the presence of forskolin and 3-isobutyl-1-methylxanthine at final concentrations of 1 μM and 500 μM, respectively. After 30 min of incubation at room temperature, the concentration of cyclic adenosine monophosphate was determined using a LANCE Ultra cAMP Assay kit (PerkinElmer).
It was measured using the PathHunter enzyme complementation assay in CHO-K1 cells expressing human NOP (CHO-K1-NOP).

mice = test: Conditioned place preference (CPP) test, reinstatement of morphine CPP; details: challenge on reinstatement day (Day 21)
B6 mice [2] = test: Respiratory function test; details: acute, equi-antinociceptive doses, 10-60 min
[3] = Charcoal meal test (gastrointestinal transit); details: B6, mouse, in vivo, sc
Method: (§1) B6 mice were fasted for at least 16 h before the study with free access to water. In a charcoal meal test, various doses of drugs were administered to the mice 30 min prior to the administration of an aqueous activated charcoal suspension (10% activated charcoal+5% gum Arabic; 0.3 mL). After 30 min, the mice were euthanized by intraperitoneal administration of a ketamine/xylazine cocktail (Sigma) followed by cervical dislocation and the total length of migration of the charcoal meal was measured from the pylorus to the ileocecal junction of the small intestine. The length of the intestine from pylorus to the caecum and the distance traveled by the charcoal were measured. The migration index was expressed as percentage of the distance traveled by the peristaltic charcoal meal relative to the total length of the small intestine, calculated according to the following formula. % of Gastrointestinal transit=Distance Travelled by Charcoal Meal/Full Length of the Small Intestine×100%
(§2) Gastrointestinal propulsion was calculated as the percentage of the distance travelled by the charcoal meal relative to the total length of the small intestine, to control for individual variations. The percentage inhibition relative to the control was also calculated as: % Gastrointestinal Inhibition (GI)=(Control group−Drug-treated group)/Control group×100% […]

B6 mice [4] = test: Charcoal meal test (gastrointestinal transit); details: equianalgesic doses
Method: as §1, §2

T1 sequence (P41146 whole entry): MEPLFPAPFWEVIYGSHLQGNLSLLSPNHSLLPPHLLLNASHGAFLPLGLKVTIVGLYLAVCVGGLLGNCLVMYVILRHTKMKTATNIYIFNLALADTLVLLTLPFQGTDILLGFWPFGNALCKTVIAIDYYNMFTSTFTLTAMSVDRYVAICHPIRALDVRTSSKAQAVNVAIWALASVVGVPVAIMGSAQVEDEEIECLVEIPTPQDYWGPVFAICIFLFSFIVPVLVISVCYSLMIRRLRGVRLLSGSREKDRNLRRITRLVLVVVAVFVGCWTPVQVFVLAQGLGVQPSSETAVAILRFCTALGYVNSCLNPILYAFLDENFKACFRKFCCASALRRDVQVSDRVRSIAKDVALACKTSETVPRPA

CN1CCc2ccccc2C1CNC(=O)c1ccc(Cl)c(Cl)c1 (stereo not drawn) [Compound 67, 3,4-Dichloro-N-[(2-methyl-1,2,3,4-tetrahydro-1-isoquinolinyl)methyl]benzamide]
antinociception of mechanical pain (B6 mice [1]): higher antinociceptive effect with mechanical stimuli than morphine
EC50 (human NOP receptor): 2.2 nM
reinstatement of morphine CPP (mice): not Compound 67
respiratory frequency (B6 mice [2]): kept recovery of respiratory frequency after 30 min
ED50 at 60 min [3]: 1.6 mg/kg
gastrointestinal dysfunction (B6 mice [4]): less gastrointestinal dysfunction than morphine

From US10597378B2 (priority 2017, dated 2020)
